Laboratory results reported in paper PMC9599461, “Stereoselectivity in the Membrane Transport of Phenylethylamine Derivatives by Human Monoamine Transporters and Organic Cation Transporters 1, 2, and 3” (Biomolecules, 2022).
Like-named read-outs stand apart in the source and are kept apart here. Marks after values point to notes of the source that are not given here.

How the values were obtained:
NET = NET (Homo sapiens, UniProt P23975); experiment: Stereoselective uptake into NET-overexpressing HEK293 cells; conditions: for Vmax ± SEM / Km: HEK293 cells overexpressing human NET, racemic substrate, two minutes; for Vmax ± SEM: net uptake; for Clint ± SEM / Stereoselectivity ClInt / Stereoselectivity Vmax / Stereoselectivity Km: NET; for Clint ± SEM: quotient of vmax over Km; for Stereoselectivity ClInt / Stereoselectivity Vmax / Stereoselectivity Km: ratio between enantiomers; for Stereoselectivity ClInt / Stereoselectivity Vmax: given as for (S) or for 2; for Stereoselectivity Km: given as for (S) or for 2 (second-eluting); for Km: read-out: Km ± SEM, net uptake minus empty vector control;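 as to all read-outs here: intracellular enantiomers quantified in cell lysates by chiral HPLC-MS/MS after a 2 min substrate incubation, with uptake normalized to total cellular protein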
Procedure: (§1) All transport experiments were carried out in HEK293 cells stably overexpressing human MATs or OCTs. […] All cells were regularly cultivated in DMEM supplemented with 10% (v/v) FCS, penicillin (100 U/mL) and streptomycin (100 μg/mL)and kept in culture for no longer than 30 passages.
(§2) For the uptake experiments, 300,000 cells were plated in poly-D-lysine precoated 24-well plates 48 h ahead of the transport experiment. On the day of experiment, cells were initially washed once with 37 °C pre-warmed HBSS+ (Hanks buffered salt solution supplemented with 10 mM HEPES) and subsequently incubated with the substrates dissolved in pre-warmed HBSS+ for exactly two minutes. Incubation was stopped by adding ice-cold HBSS+ followed by two washing steps. After this, cells were lysed with 80% acetonitrile containing 10 ng/mL milnacipran as internal standard for high-performance liquid chromatography coupled to tandem mass spectrometry (HPLC-MS/MS) analysis. For every experiment, two additional wells per cell line were lysed using RIPA buffer for protein quantification. Total protein was quantified using the bicinchoninic acid assay [42]. This was later used for normalization of the uptake data.
(§3) Intracellularly accumulated test substances were quantified by HPLC-MS/MS analysis using a Shimadzu Nexera HPLC system with a SIL-30AC autosampler, a CTO-20AC column oven, a LC-30AD pump, and a CBM-20A controller (Shimadzu, Kyoto, Japan). Stereoselective chromatography was carried out on a [sequence] CBH HPLC column (100 × 3 mm inner dimension with 5 μM particle size; Sigma-Aldrich, Darmstadt, Germany) with a corresponding 10 × 3 mm guard column. Reversed phased chromatography was carried out using an ammonium acetate (NH4Ac) buffered aqueous mobile phase with isopropyl alcohol (IPA) as organic solvent. […] The order of elution of the enantiomers was obtained from available reference literature [43] or by applying enantiopure reference compounds to the chiral HPLC. […] Given the structural similarity of the investigated substances and the fact that separation was performed on the same column with almost identical mobile phases, we assume that this order of elution for our compound set is always the (R)- before the (S)-enantiomer.
(§4) Detection was performed with an API 4000 tandem mass spectrometer (AB SCIEX, Darmstadt, Germany) operating in multiple-reaction-monitoring mode. Quantification was performed using the Analyst 1.6.2 software (AB SCIEX, Darmstadt, Germany) and quantified by comparison to standard curves with known concentrations.
(§5) All uptake data were normalized to protein content to account for variation in the number of seeded sells. Transporter-mediated net uptake was calculated by subtracting uptake into empty vector-transfected control cells from uptake into transporter-transfected cells. Kinetic parameters were then determined after non-linear regression following the Michaelis–Menten equation (v = vmax × [S]/(Km + [S])) using GraphPad Prism (Version 5.01 for Windows, GraphPad Software, La Jolla, CA, USA). Vmax refers to the maximum transport velocity and Km is defined as the substance concentration required to reach half of vmax. The intrinsic clearance Clint was calculated as the quotient of vmax over Km.

OCT2 A270S variant = experiment: Stereoselective uptake into OCT2 A270S variant-overexpressing HEK293 cells; conditions: 100 μM racemic substance, two minutes; for Transporter selectivity: OCT2 wild-type versus A270S, given as for WT;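 as to all read-outs here: uptake into HEK293 cells stably overexpressing human OCT2 variants, intracellular enantiomers quantified by chiral HPLC-MS/MS and normalized to total protein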
SERT [1] = target: T1, SERT (Homo sapiens, UniProt P31645);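 also: uptake into HEK293 cells stably expressing human SERT over 2 min, enantiomers measured in cell lysate by chiral HPLC-MS/MS, normalized to total protein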
Procedure: as §1, §2
(§6) Intracellularly accumulated test substances were quantified by HPLC-MS/MS analysis using a Shimadzu Nexera HPLC system with a SIL-30AC autosampler, a CTO-20AC column oven, a LC-30AD pump, and a CBM-20A controller (Shimadzu, Kyoto, Japan). […] CBH HPLC column (100 × 3 mm inner dimension with 5 μM particle size; Sigma-Aldrich, Darmstadt, Germany) with a corresponding 10 × 3 mm guard column. Reversed phased chromatography was carried out using an ammonium acetate (NH4Ac) buffered aqueous mobile phase with isopropyl alcohol (IPA) as organic solvent. […] The order of elution of the enantiomers was obtained from available reference literature [43] or by applying enantiopure reference compounds to the chiral HPLC.
as §4
(§7) All uptake data were normalized to protein content to account for variation in the number of seeded sells. Transporter-mediated net uptake was calculated by subtracting uptake into empty vector-transfected control cells from uptake into transporter-transfected cells. […] Vmax refers to the maximum transport velocity and Km is defined as the substance concentration required to reach half of vmax. The intrinsic clearance Clint was calculated as the quotient of vmax over Km.

SERT [2] = target: T1, SERT; experiment: Stereoselective uptake into SERT-overexpressing HEK293 cells; conditions: for Vmax ± SEM / Km: HEK293 cells overexpressing human SERT, racemic substrate, two minutes; for Vmax ± SEM: net uptake; for Clint ± SEM: SERT, quotient of vmax over Km; for Km: read-out: Km ± SEM, net uptake minus empty vector control;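 as to all read-outs here: uptake into HEK293 cells stably expressing human SERT over 2 min, enantiomers measured in cell lysate by chiral HPLC-MS/MS, normalized to total protein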
Procedure: as §1, §2, §6, §4, §7

OCT3 = target: T2, OCT3 (Homo sapiens, UniProt O75751); experiment: Stereoselective uptake into OCT3-overexpressing HEK293 cells; conditions: for Vmax ± SEM / Km: HEK293 cells overexpressing human OCT3, racemic substrate, two minutes; for Vmax ± SEM: net uptake; for Clint ± SEM: quotient of vmax over Km; for Stereoselectivity Vmax: given as for (R) or for 1; for Km: read-out: Km ± SEM, net uptake minus empty vector control;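 as to all read-outs here: intracellular accumulation in HEK293 cells measured by chiral HPLC-MS/MS after a 2 min substrate exposure at 37 °C, uptake normalized to total protein (bicinchoninic acid assay)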
T2 sequence (O75751 1-556): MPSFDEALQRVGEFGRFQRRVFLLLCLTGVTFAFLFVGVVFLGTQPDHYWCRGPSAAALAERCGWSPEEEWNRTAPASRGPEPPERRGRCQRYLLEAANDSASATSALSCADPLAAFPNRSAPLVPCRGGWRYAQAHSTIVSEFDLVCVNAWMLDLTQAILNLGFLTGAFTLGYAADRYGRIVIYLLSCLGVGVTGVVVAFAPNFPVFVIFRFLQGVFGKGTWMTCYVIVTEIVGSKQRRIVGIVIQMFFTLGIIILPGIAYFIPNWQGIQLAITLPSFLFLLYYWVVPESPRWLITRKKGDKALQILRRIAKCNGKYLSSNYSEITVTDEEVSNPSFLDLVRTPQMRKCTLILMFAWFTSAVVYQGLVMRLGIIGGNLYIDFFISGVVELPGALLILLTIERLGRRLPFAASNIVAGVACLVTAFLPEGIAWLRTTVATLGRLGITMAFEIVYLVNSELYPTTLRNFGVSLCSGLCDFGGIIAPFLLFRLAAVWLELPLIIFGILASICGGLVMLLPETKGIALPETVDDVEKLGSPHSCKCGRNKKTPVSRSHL
Procedure: as §1, §2, §3, §4, §5

OCT2 [3] = target: T3, OCT2 (Homo sapiens, UniProt O15244); experiment: Stereoselective uptake into OCT2 (wild-type)-overexpressing HEK293 cells; conditions: for Vmax ± SEM / Km: HEK293 cells overexpressing human OCT2, racemic substrate, two minutes; for Vmax ± SEM: net uptake; for Clint ± SEM: OCT2, quotient of vmax over Km; for Km: read-out: Km ± SEM, net uptake minus empty vector control
T3 sequence (O15244 1-555 S270A): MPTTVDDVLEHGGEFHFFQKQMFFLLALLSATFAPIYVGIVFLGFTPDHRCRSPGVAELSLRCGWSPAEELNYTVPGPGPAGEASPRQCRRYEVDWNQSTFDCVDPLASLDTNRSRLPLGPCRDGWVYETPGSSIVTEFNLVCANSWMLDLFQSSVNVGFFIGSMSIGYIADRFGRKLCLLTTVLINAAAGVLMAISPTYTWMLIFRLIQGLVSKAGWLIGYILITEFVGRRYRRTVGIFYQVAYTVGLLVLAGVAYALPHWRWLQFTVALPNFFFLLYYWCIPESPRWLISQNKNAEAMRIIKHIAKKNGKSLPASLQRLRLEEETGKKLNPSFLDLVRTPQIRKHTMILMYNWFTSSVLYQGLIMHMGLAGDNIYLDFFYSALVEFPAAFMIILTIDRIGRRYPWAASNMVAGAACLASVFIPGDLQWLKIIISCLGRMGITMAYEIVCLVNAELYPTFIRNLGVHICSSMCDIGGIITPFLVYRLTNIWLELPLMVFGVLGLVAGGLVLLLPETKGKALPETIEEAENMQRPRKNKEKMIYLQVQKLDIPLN
Procedure: as §1, §2
(§8) Intracellularly accumulated test substances were quantified by HPLC-MS/MS analysis using a Shimadzu Nexera HPLC system with a SIL-30AC autosampler, a CTO-20AC column oven, a LC-30AD pump, and a CBM-20A controller (Shimadzu, Kyoto, Japan). Stereoselective chromatography was carried out on a [sequence] CBH HPLC column (100 × 3 mm inner dimension with 5 μM particle size; Sigma-Aldrich, Darmstadt, Germany) with a corresponding 10 × 3 mm guard column. Reversed phased chromatography was carried out using an ammonium acetate (NH4Ac) buffered aqueous mobile phase with isopropyl alcohol (IPA) as organic solvent. […] The order of elution of the enantiomers was obtained from available reference literature [43] or by applying enantiopure reference compounds to the chiral HPLC. […] However, in every other case where the order of elution was available, the (R)-enantiomer eluted first. Given the structural similarity of the investigated substances and the fact that separation was performed on the same column with almost identical mobile phases, we assume that this order of elution for our compound set is always the (R)- before the (S)-enantiomer.
as §4, §5
(§9) HEK293 cells stably overexpressing wild-type or mutant OCT2 were incubated with 100 μM racemic substance for two minutes.

OCT2 [4] = target: T4, OCT2 (Homo sapiens, UniProt O15244, S270A); experiment: as above; conditions: OCT2, ratio between enantiomers; for Stereoselectivity Km: given as for (R) or for 1 (first-eluting)
T4 sequence (O15244 1-555 S270A): T3 sequence (O15244 1-555 S270A)
Procedure: as §1, §2, §8, §4, §5, §9

DAT = DAT (Homo sapiens, UniProt Q01959); experiment: Stereoselective uptake into DAT-overexpressing HEK293 cells; conditions: for Clint ± SEM: quotient of vmax over Km; for Stereoselectivity ClInt / Stereoselectivity Vmax / Stereoselectivity Km: ratio between enantiomers; for Stereoselectivity ClInt / Stereoselectivity Vmax: given as for (S) or for 2; for Stereoselectivity Km: given as for (S) or for 2 (second-eluting); for Vmax ± SEM / Km: HEK293 cells overexpressing human DAT, racemic substrate, two minutes; for Vmax ± SEM: net uptake; for Km: read-out: Km ± SEM, net uptake minus empty vector control;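 as to all read-outs here: intracellular accumulation measured by chiral HPLC-MS/MS in stably transfected HEK293 cells, normalized to total protein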
Procedure: as §1, §2, §3, §4, §5

OCT1 = target: T5, OCT1 (Homo sapiens, UniProt O15245); experiment: Stereoselective uptake into OCT1-overexpressing HEK293 cells; conditions: for Vmax ± SEM / Km: HEK293 cells overexpressing human OCT1, racemic substrate, two minutes; for Vmax ± SEM: net uptake; for Clint ± SEM / Stereoselectivity ClInt / Stereoselectivity Vmax / Stereoselectivity Km: OCT1; for Clint ± SEM: quotient of vmax over Km; for Stereoselectivity ClInt / Stereoselectivity Vmax / Stereoselectivity Km: ratio between enantiomers; for Stereoselectivity Km: given as for (S) or for 2 (second-eluting); for Km: read-out: Km ± SEM, net uptake minus empty vector control;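 as to all read-outs here: enantiomers quantified inside cells by chiral HPLC-MS/MS, uptake normalized to total protein from bicinchoninic acid assay, substrates applied in HBSS+ buffer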
T5 sequence (O15245 1-554): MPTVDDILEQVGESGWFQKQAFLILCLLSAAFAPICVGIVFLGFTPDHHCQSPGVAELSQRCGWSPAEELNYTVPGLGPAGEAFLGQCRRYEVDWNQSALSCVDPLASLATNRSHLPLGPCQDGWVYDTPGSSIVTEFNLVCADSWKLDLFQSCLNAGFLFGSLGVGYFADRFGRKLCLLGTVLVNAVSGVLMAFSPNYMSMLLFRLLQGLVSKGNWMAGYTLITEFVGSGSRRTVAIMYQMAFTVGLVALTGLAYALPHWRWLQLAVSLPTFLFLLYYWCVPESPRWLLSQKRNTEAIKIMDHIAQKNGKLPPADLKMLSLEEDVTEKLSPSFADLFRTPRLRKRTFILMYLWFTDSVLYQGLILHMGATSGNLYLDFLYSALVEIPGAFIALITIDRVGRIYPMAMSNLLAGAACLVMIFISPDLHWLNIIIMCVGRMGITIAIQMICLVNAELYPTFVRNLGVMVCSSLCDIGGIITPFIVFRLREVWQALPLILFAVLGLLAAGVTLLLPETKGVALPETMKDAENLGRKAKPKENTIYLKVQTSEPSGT
Procedure: as §1, §2, §3, §4, §5

[5] = OCT3, ratio between enantiomers
[6] = OCT3, ratio between enantiomers, given as for (R) or for 1 (first-eluting)
[7] = OCT3, ratio between enantiomers, given as for (S) or for 2

Sequence of DAT (Q01959 whole entry): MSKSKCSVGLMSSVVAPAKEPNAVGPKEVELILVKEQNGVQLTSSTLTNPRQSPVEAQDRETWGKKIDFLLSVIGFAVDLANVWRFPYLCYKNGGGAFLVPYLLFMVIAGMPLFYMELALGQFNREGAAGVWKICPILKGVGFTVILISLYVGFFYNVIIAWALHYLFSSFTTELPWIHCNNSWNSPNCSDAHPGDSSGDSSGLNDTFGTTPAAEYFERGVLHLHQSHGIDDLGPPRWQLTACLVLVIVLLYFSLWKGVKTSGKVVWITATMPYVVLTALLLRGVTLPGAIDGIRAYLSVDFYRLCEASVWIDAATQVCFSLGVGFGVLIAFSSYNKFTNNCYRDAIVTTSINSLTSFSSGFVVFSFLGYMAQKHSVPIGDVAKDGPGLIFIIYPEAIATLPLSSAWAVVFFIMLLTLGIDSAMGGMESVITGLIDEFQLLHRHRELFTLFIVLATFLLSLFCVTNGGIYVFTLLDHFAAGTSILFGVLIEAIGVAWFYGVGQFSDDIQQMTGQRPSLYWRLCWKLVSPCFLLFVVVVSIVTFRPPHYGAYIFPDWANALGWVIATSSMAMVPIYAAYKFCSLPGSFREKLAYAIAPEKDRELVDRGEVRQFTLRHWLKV
Sequence of NET (P23975 whole entry): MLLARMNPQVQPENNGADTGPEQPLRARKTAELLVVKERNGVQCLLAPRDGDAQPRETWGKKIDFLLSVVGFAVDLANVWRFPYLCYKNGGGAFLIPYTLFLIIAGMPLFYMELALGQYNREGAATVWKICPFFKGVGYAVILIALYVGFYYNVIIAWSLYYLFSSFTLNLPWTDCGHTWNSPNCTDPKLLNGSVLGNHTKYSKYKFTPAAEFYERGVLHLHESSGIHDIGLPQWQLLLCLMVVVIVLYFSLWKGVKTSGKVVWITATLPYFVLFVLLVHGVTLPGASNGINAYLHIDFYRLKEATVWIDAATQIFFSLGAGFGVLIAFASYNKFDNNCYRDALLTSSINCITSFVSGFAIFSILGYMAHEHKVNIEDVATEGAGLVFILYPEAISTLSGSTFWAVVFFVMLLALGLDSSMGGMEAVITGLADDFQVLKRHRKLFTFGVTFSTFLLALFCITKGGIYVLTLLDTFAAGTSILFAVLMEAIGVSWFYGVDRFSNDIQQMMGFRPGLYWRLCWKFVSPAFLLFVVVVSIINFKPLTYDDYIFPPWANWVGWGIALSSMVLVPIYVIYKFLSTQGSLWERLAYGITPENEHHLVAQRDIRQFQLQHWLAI
T1 sequence (P31645 whole entry): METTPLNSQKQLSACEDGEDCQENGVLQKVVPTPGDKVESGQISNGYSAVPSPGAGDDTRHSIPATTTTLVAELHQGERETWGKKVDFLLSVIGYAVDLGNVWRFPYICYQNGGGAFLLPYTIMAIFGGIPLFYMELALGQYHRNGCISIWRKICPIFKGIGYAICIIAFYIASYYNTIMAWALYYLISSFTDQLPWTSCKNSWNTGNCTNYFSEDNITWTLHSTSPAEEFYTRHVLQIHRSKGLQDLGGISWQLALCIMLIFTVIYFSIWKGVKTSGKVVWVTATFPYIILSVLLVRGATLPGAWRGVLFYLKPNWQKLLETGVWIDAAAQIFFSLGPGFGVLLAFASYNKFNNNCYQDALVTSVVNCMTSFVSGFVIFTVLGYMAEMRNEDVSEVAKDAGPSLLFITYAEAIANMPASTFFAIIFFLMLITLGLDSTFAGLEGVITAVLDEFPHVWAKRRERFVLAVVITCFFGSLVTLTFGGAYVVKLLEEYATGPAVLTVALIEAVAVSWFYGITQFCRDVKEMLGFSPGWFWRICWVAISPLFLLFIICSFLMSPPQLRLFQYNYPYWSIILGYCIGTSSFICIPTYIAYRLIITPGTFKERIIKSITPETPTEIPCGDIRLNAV

| SMILES | Vmax ± SEM (NET) | Clint ± SEM (NET) | Stereoselectivity ClInt (NET) | Stereoselectivity Vmax (NET) | Stereoselectivity Km (NET) | Km (NET) [µM] | Stereoselectivity ClInt (SERT [1]) | Stereoselectivity Km (SERT [2]) | Stereoselectivity Vmax (SERT [2]) | Vmax ± SEM (SERT [2]) | Clint ± SEM (SERT [2]) | Km (SERT [2]) [µM] | Vmax ± SEM (OCT3) | Clint ± SEM (OCT3; OCT3) | Stereoselectivity Vmax (OCT3; [5]) | Km (OCT3) [µM] | Vmax ± SEM (OCT2 [3]) | Clint ± SEM (OCT2 [3]) | Km (OCT2 [3]) [µM] | Stereoselectivity Km (OCT2 [4]) | further results |
| --- | --- | --- | --- | --- | --- | --- | --- | --- | --- | --- | --- | --- | --- | --- | --- | --- | --- | --- | --- | --- | --- |
| NC[C@H](O)c1ccc(O)c(O)c1 [(R)-Norepinephrine] | 262 ± 15 pmol × mg Protein^−1 × min^−1 | 113.3 ± 47.6 mL × g Protein^−1 × min^−1 | 1.05-fold for (S) | 1.38-fold for (S) ** | 1.32-fold for (S) | 2.31 ± 0.84 | 1.78-fold for (R) | 1.01-fold for (R) | 1.79-fold for (R) ** | 727 ± 60 pmol × mg Protein^−1 × min^−1 | 4.12 ± 1.31 mL × g Protein^−1 × min^−1 | 176 ± 41.7 | 3683 ± 360 pmol × mg Protein^−1 × min^−1 | 6.61 ± 3.02 mL × g Protein^−1 × min^−1 | 1.01-fold for (R) | 557 ± 200 | 6603 ± 664 pmol × mg Protein^−1 × min^−1 | 3.81 ± 1.30 mL × g Protein^−1 × min^−1 | 1730 ± 418 | 1.32-fold for (R) | Transporter selectivity (OCT2 A270S variant): 1.21 fold; Stereoselectivity Km (OCT3; [6]): 1.07-fold for (R); Stereoselectivity ClInt (OCT3; [7]): 1.07-fold for (S); Stereoselectivity ClInt (OCT2 [4]; given as for (R) or for 1): 1.64-fold for (R); Stereoselectivity Vmax (OCT2 [4]; given as for (R) or for 1): 2.17-fold for (R) **; Clint ± SEM (DAT; DAT): 138.8 ± 19.7 mL × g Protein^−1 × min^−1; Stereoselectivity ClInt (DAT; DAT): 1.12-fold for (S); Stereoselectivity Vmax (DAT; DAT): 1.47-fold for (S) ***; Stereoselectivity Km (DAT; DAT): 1.31-fold for (S); Vmax ± SEM (DAT): 3085 ± 81 pmol × mg Protein^−1 × min^−1; Km (DAT): 22.2 ± 2.6 µM; Vmax ± SEM (OCT1): 1524 ± 330 pmol × mg Protein^−1 × min^−1; Clint ± SEM (OCT1): 0.45 ± 0.28 mL × g Protein^−1 × min^−1; Stereoselectivity ClInt (OCT1; given as for (S) or for 2): 1.06-fold for (S); Stereoselectivity Vmax (OCT1; given as for (S) or for 2): 1.16-fold for (S); Stereoselectivity Km (OCT1): 1.09-fold for (S); Km (OCT1): 3390 ± 1420 µM |
| NC[C@@H](O)c1ccc(O)c(O)c1 [(S)-Norepinephrine] | 362 ± 20 pmol × mg Protein^−1 × min^−1 | 118.7 ± 46.0 mL × g Protein^−1 × min^−1 | 1.05-fold for (S) | 1.38-fold for (S) ** | 1.32-fold for (S) | 3.05 ± 1.01 | 1.78-fold for (R) | 1.01-fold for (R) | 1.79-fold for (R) ** | 405 ± 42 pmol × mg Protein^−1 × min^−1 | 2.31 ± 0.93 mL × g Protein^−1 × min^−1 | 175 ± 52.2 | 3662 ± 299 pmol × mg Protein^−1 × min^−1 | 7.05 ± 2.73 mL × g Protein^−1 × min^−1 | 1.01-fold for (R) | 519 ± 158 | 3042 ± 258 pmol × mg Protein^−1 × min^−1 | 2.32 ± 0.71 mL × g Protein^−1 × min^−1 | 1310 ± 291 | 1.32-fold for (R) | Transporter selectivity (OCT2 A270S variant): 1.22 fold; Stereoselectivity Km (OCT3; [6]): 1.07-fold for (R); Stereoselectivity ClInt (OCT3; [7]): 1.07-fold for (S); Stereoselectivity ClInt (OCT2 [4]; given as for (R) or for 1): 1.64-fold for (R); Stereoselectivity Vmax (OCT2 [4]; given as for (R) or for 1): 2.17-fold for (R) **; Clint ± SEM (DAT; DAT): 155.5 ± 21.4 mL × g Protein^−1 × min^−1; Stereoselectivity ClInt (DAT; DAT): 1.12-fold for (S); Stereoselectivity Vmax (DAT; DAT): 1.47-fold for (S) ***; Stereoselectivity Km (DAT; DAT): 1.31-fold for (S); Vmax ± SEM (DAT): 4524 ± 122 pmol × mg Protein^−1 × min^−1; Km (DAT): 29.1 ± 3.2 µM; Vmax ± SEM (OCT1): 1766 ± 258 pmol × mg Protein^−1 × min^−1; Clint ± SEM (OCT1): 0.48 ± 0.20 mL × g Protein^−1 × min^−1; Stereoselectivity ClInt (OCT1; given as for (S) or for 2): 1.06-fold for (S); Stereoselectivity Vmax (OCT1; given as for (S) or for 2): 1.16-fold for (S); Stereoselectivity Km (OCT1): 1.09-fold for (S); Km (OCT1): 3710 ± 1010 µM |
| C[C@@H]1NCCc2cc(O)c(O)cc21 [Salsolinol-1, Salsolinol] | 112 pmol × mg Protein^−1 × min^−1 | 1.24 mL × g Protein^−1 × min^−1 | 1.19 fold | 1.35 fold | 1.13 fold | 90.1 | 2.48 fold | 1.85 fold | 1.34 fold | 229 pmol × mg Protein^−1 × min^−1 | 1.77 mL × g Protein^−1 × min^−1 | 129 | 705 pmol × mg Protein^−1 × min^−1 | 3.80 mL × g Protein^−1 × min^−1 | 1.01 fold | 186 | 9083 pmol × mg Protein^−1 × min^−1 | 40.9 mL × g Protein^−1 × min^−1 | 222 | 1.04 fold | Net uptake by A270S variant in comparison to the wild-type (OCT2 A270S variant): 66%; Transporter selectivity (OCT2 A270S variant; listed as (R)-Salsolinol): 1.50 fold; Stereoselectivity ClInt (OCT3): 1.21 fold; Stereoselectivity Km (OCT3; OCT3, ratio between enantiomers, given as for (S) or for 2 (second-eluting)): 1.20 fold; Stereoselectivity ClInt (OCT2 [4]; given as for (S) or for 2): 1.05 fold; Stereoselectivity Vmax (OCT2 [4]; given as for (S) or for 2): 1.01 fold; Saturable net uptake (DAT; DAT, result in words): No saturable net uptake; Vmax ± SEM (OCT1): 1450 pmol × mg Protein^−1 × min^−1; Clint ± SEM (OCT1): 10.9 mL × g Protein^−1 × min^−1; Stereoselectivity ClInt (OCT1; given as for (R) or for 1 (also 1.00-fold for 1/2)): 1.00 fold; Km (OCT1): 133 µM |
